Results on 14 molecules are retold here after ChEMBL document CHEMBL5335808, “Design, synthesis of new 3H-imidazo[4,5-b]pyridine derivatives and evaluation of their inhibitory properties as mixed lineage kinase 3 inhibitors” (Bioorg Med Chem Lett, 2024).

The nature of data set [1]: Permeability of the compound by PAMPA method. It counts as ADME. The conditions noted are these: read-out: Peff.
In data set [2] the target is T1, Mitogen-activated protein kinase kinase kinase 11 (Homo sapiens, UniProt Q16584). Put plainly: Inhibition of human MLK3 by ATP-competitive binding assay.
Target sequence in this assay (Q16584 whole entry): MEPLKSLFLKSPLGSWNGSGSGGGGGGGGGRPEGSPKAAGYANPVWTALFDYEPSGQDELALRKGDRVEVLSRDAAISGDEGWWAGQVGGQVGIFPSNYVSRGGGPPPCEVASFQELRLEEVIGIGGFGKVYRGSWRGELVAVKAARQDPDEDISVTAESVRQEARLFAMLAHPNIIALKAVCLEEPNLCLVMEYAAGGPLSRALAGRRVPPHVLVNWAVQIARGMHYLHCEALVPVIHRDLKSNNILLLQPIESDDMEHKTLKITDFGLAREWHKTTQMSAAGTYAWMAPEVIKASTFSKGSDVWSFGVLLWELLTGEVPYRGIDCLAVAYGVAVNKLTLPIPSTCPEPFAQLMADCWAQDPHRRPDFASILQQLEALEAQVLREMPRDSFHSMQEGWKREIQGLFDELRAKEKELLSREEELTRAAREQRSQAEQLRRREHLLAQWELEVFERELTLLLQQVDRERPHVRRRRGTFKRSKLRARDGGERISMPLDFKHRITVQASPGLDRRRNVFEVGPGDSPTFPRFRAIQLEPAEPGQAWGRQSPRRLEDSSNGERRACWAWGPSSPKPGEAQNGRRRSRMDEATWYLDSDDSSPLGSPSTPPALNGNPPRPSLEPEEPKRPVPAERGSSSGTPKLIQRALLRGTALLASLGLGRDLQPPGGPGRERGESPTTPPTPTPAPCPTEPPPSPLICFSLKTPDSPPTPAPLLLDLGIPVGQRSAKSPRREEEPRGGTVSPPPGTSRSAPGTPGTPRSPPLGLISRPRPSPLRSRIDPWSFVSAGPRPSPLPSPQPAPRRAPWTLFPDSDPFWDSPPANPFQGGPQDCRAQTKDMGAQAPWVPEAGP
The nature of data set [3]: Lipophilicity, LogP of the compound. It counts as physicochemical. The following applies: octanol/water.
Data set [4] has as its target T1, Mitogen-activated protein kinase kinase kinase 11. Put plainly: Inhibition of human MLK3 at 0.5 uM by ATP-competitive binding assay relative to control.
Target sequence in this assay (Q16584 whole entry, looked up): as the sequence (Q16584 whole entry) above

On to `CCS(=O)(=O)N1CC[C@H](Nc2c(Br)cnc3[nH]c(-c4cc(C)n(-c5cccc(C(=O)NCCN(C)C)c5)c4C)nc23)C1`, for which, in data set [1], the Papp came to 3.42 ×10⁻⁶ cm/s. The molecule also came in with a 50% inhibitory concentration (IC50) in data set [2] of 27 nM. The molecule also registered a log partition coefficient (logP) in data set [3] of 4.81.
As to `CCS(=O)(=O)N1CC[C@H](Nc2c(Br)cnc3[nH]c(-c4cc(C)n(-c5cccc(C(=O)N6CCOCC6)c5)c4C)nc23)C1`, in data set [1], the Papp was 15.2 ×10⁻⁶ cm/s. In data set [2], this molecule yielded a concentration for half-maximal inhibition (IC50) of 6 nM. Also, in data set [3], the logP was found to be 3.69.
With `CCS(=O)(=O)N1CC[C@H](Nc2c(Br)cnc3[nH]c(-c4cc(C)n(-c5ccc(NC(=O)CN(C)C)cc5C)c4C)nc23)C1`, in data set [1], the Papp worked out at 48.7 ×10⁻⁶ cm/s. In addition, the logP in data set [3] stood at 4.53.
The like results for `CCS(=O)(=O)N1CC[C@H](Nc2c(Br)cnc3[nH]c(-c4cc(C)n(-c5ccc(C(=O)N(C)CCN(C)C)cc5)c4C)nc23)C1` were, in that order, 8.91 ×10⁻⁶ cm/s and 3.52.
For `CCS(=O)(=O)N1CC[C@H](Nc2c(Br)cnc3nc(-c4cc(C)n(-c5cccc(C(=O)NCCN(C)C)c5C)c4C)[nH]c23)C1`, in that order: 21.2 ×10⁻⁶ cm/s and 4.86.
For `CCS(=O)(=O)N1CC[C@H](Nc2c(Br)cnc3nc(-c4cc(C)n(-c5cccc(NC(=O)CN(C)C)c5C)c4C)[nH]c23)C1`, in that order: 55.9 ×10⁻⁶ cm/s and 5.17.
`CC(C)c1nn(C)cc1-c1nc2cc(Br)cnc2[nH]1` returned an inhibition in data set [4] of 21%.
For the molecule `CCS(=O)(=O)N1CC[C@H](Nc2c(Br)cnc3[nH]c(-c4cc(C)n(-c5cc(NC(=O)CN6CCN(C)CC6)ccc5C)c4C)nc23)C1`, the logP in data set [3] was determined as 5.89.
In the case of `CCS(=O)(=O)N1CC[C@H](Nc2c(Br)cnc3[nH]c(-c4cc(C)n(-c5ccc(C(=O)N6CCN(C)CC6)cc5C)c4C)nc23)C1`, the Papp in data set [1] is 13.9 ×10⁻⁶ cm/s. In data set [2], the IC50 is 25 nM. In data set [3], the logP amounted to 5.16.
In the case of `CCS(=O)(=O)N1CC[C@H](Nc2c(Br)cnc3nc(-c4cc(C)n(-c5cccc(NC(=O)CN6CCOCC6)c5C)c4C)[nH]c23)C1`, in data set [1], the Papp was 47.8 ×10⁻⁶ cm/s. This molecule displayed a log partition coefficient (logP) in data set [3] of 4.28.
The like results for `CCS(=O)(=O)N1CC[C@H](Nc2c(Br)cnc3[nH]c(-c4cc(C)n(-c5cc(C(=O)N6CCN(C)CC6)ccc5C)c4C)nc23)C1` were, in that order, 35.7 ×10⁻⁶ cm/s and 5.06.
As to `O=C1Nc2ccc3ncsc3c2/C1=C/c1c[nH]cn1`, the half-inhibitory concentration (IC50) in data set [2] worked out at 144 nM.
Consider `CCS(=O)(=O)N1CC[C@H](Nc2c(Br)cnc3[nH]c(-c4cc(C)n(-c5ccc(C(=O)N6CCOCC6)cc5)c4C)nc23)C1`, for which the Papp in data set [1] was found to be 13.1 ×10⁻⁶ cm/s. The molecule further came in with a 50% inhibitory concentration (IC50) in data set [2] of 6 nM. The logP in data set [3] stood at 3.92.
Consider `CCS(=O)(=O)N1CC[C@H](Nc2c(Br)cnc3[nH]c(-c4cc(C)n(-c5ccc(C(=O)NCCN(C)C)cc5)c4C)nc23)C1`, for which the Papp in data set [1] turned out to be 2.53 ×10⁻⁶ cm/s. For the same molecule, the logP in data set [3] amounted to 3.86.
